From patent US20020169175A1, “Pharmaceutically acceptable salts of heterocyclic compounds” (DR. REDDY'S LABORATORIES LTD., priority 2001, published 2002)
Counter-ions that a name gives are not always drawn. Like-named read-outs stand apart in the source and are kept apart here.

Key:
[1] = Single dose oral pharmacokinetic studies in male Wistar rats; format: in vivo, rat; conditions: fasted, suspension in 0.25% sodium CMC; for half-life: read-out: t½ (converted)
Description: Single Dose Oral Pharmacokinetic Studies
Male Wistar rats (220-250 gm) were used in the experiments. The animals were maintained under standard laboratory conditions and had free access to feed and water ad libitum. Before experimentation animals were fasted overnight (˜15 h) during which they had free access to water ad libitum.
An amount equivalent to 30 mg of drug was weighed accurately and transferred into a clean mortar and triturated to obtain a fine powder. To this 0.5 ml of 0.25% sodium carboxy methyl cellulose (sodium CMC) was added to obtain a paste. To the obtained paste remaining 2.5 ml of sodium CMC was added to make up the volume to 3 ml. Based on the animal weight appropriate volume (body weight×3) of the prepared suspension was administered through oral gavage.
After dosing, at designated time points (0.5, 1, 2, 3, 5, 8, 12 and 24 h) 200 μl of blood was collected from retro orbital plexus into 0.5 ml eppendorff tubes containing EDTA (10 μl of 200 mg/ml solution in Milli Q water). Blood was centrifuged at 12,800 rpm for 5 min and obtained plasma and stored at −20° C. till further analysis.
100μl plasma was transferred into a clean and dry centrifuge tube. To this internal standard (10 μl of 100 μg/ml) was added and extracted with 2 ml of extraction recovery solvent. The contents were vortexed for 2 min, followed by centrifugation for 10 min at 2800 rpm. Clear organic layer (2×0.75 ml) was separated and dried under nitrogen gas at 50° C. The residue was reconstituted with 150 μl of mobile phase and vortexed for 20 sec, from this 50 μl was injected onto HPLC column.
Pharmacokinetic parameters were calculated by non-compartmental model analysis. The peak plasma concentration (Cmax) and the corresponding time (Tmax)were directly obtained from the raw data. The area under the plasma concentration versus time curve up to the last quantifiable time point, AUC(0−t) was obtained by the linear and log-linear trapezoidal summation. The AUC(0−t) extrapolated to infinity (i.e., AUC(0−∞)) by adding the quotient of Clast/Kel, where Clast represents the last measurable time concentration and Kel represents the apparent terminal rate constant. Kel was calculated by the linear regression of the log-transformed concentrations of the drug in the terminal phase. The half-life of the terminal elimination phase was obtained using the relationship t½=0.693/Kel.

[2] = male, Wistar, rat, plasma, po, 30 mg/kg
[3] = male, Wistar, rat, plasma, po, 30 mg/kg, read-out: AUC (0-t)
[4] = male, Wistar, rat, plasma, po, 30 mg/kg, read-out: Cmax
[5] = male, Wistar, rat, plasma, po, 30 mg/kg, read-out: Tmax

`CCO[C@@H](Cc1ccc(OCCn2c(CC)nc3ccccc3c2=O)cc1)C(=O)O` (as salt: salt) [Example 4, (−)-3-[4-[2-(2-Ethyl-4-oxo-3,4-dihydroquinazolin-3-yl)ethoxy]phenyl]-2ethoxypropanoic acid lysine salt] gave a melting point of 152 to 155 °C.
With `CCO[C@@H](Cc1ccc(OCCn2c(CC)nc3ccccc3c2=O)cc1)C(=O)O` (as salt: salt) [Example 7, (−)-3-[4-[2-(2-Ethyl-4-oxo-3,4-dihydroquinazolin-3-yl)ethoxy]phenyl]-2-ethoxypropanoic acid N-methyl glucamine salt] the melting point was 114 to 116 °C.
Molecule `CCO[C@@H](Cc1ccc(OCCn2c(CC)nc3ccccc3c2=O)cc1)C(=O)O` (as salt: salt) [Example 10, (−)-3-[4-[2-(2-Ethyl-4-oxo-3,4-dihydroquinazolin-3-yl)ethoxy]phenyl]-2-ethoxypropanoic acid magnesium salt] has a melting point greater than 250 °C.
`CCO[C@@H](Cc1ccc(OCCn2c(CC)nc3ccccc3c2=O)cc1)C(=O)O` (as salt: salt) [Example 11, (−)-3-[4-[2-(2-Ethyl-4-oxo-3,4-dihydroquinazolin-3-yl)ethoxy]phenyl]-2-ethoxypropanoic acid arginine salt] showed a melting point of 216 to 220 °C.
`CCCc1nn(C)c2c(=O)n(CCOc3ccc(C[C@H](OCC)C(=O)O)cc3)c(C)nc12` (as salt: salt) [Example 24, 3-[4-[2-(1,5-Dimethyl-7-oxo-3-propyl-6,7-dihydro-1H-pyrazolo[4,3-d]pyrimidin-6-yl)ethoxy]phenyl]-2-ethoxypropionic acid aminoguanidine hydrogen carbonate salt] gave a melting point of 110 to 112 °C.
Work on `CCCc1nn(C)c2c(=O)n(CCOc3ccc(C[C@H](OCC)C(=O)O)cc3)c(CC)nc12` (as salt: salt) [Example 36, (−)-3-[4-[2-(1-Methyl-5-ethyl-7-oxo-3-propyl-6,7-dihydro-1H-pyrazolo[4,3-d]pyrimidin-6-yl)ethoxy]phenyl]-2-ethoxypropionic acid arginine salt] yielded a melting point of 235 °C.
`CCCc1nn(C)c2c(=O)n(CCOc3ccc(C[C@H](OCC)C(=O)O)cc3)c(CC)nc12` (as salt: salt) [Example 39, (−)-3-[4-[2-(1-Methyl-5-ethyl-7-oxo-3-propyl-6,7-dihydro-1H-pyrazolo[4,3-d]pyrimidin-6-yl)ethoxy]phenyl]-2-ethoxypropionic acid aminoguanidine hydrogen carbonate salt] gave a melting point of 130 °C.
Work on `CCCc1nn(C)c2c(=O)n(CCOc3ccc(C[C@H](OCC)C(=O)O)cc3)c(CC)nc12` (as salt: salt) [Example 41, (−)-3-[4-[2-(1-Methyl-5-ethyl-7-oxo-3-propyl-6,7-dihydro-1H-pyrazolo[4,3-d]pyrimidin-6-yl)ethoxy]phenyl]-2-ethoxypropionic acid dicyclohexylamine salt] yielded a melting point of 138 to 140 °C.
Molecule `CCCc1nn(C)c2c(=O)n(CCOc3ccc(C[C@H](OCC)C(=O)O)cc3)c(CC)nc12` (as salt: salt) [Example 44, (−)-3-[4-[2-(1-Methyl-5-ethyl-7-oxo-3-propyl-6,7-dihydro-1H-pyrazolo[4,3-d]pyrimidin-6-yl)ethoxy]phenyl]-2-ethoxypropionic acid metformin salt] has a melting point of 118 °C.
Work on `CCCc1nn(C)c2c(=O)n(CCOc3ccc(C[C@H](OCC)C(=O)O)cc3)c(CC)nc12` (as salt: tromethamine) [Example 40, (−)-3-[4-[2-(1-Methyl-5-ethyl-7-oxo-3-propyl-6,7-dihydro-1H-pyrazolo[4,3-d]pyrimidin-6-yl)ethoxy]phenyl]-2-ethoxypropionic acid tromethamine salt] yielded a melting point of 116 to 118 °C.
In the case of `CCCc1nn(C)c2c(=O)n(CCOc3ccc(C[C@H](OCC)C(=O)[O-])cc3)c(CC)nc12.[K+]` (stereo in doubt), the melting point is reported as 164 °C.
`CCCc1nn(C)c2c(=O)n(CCOc3ccc(C[C@H](OCC)C(=O)[O-])cc3)c(CC)nc12.[Li+]` (stereo in doubt) showed a melting point of 215 to 218 °C.
Work on `CCO[C@@H](Cc1ccc(OCCn2c(CC)nc3ccccc3c2=O)cc1)C(=O)[O-].[Li+]` (stereo in doubt) yielded a melting point of 245 to 247 °C.
Molecule `CCO[C@@H](Cc1ccc(OCCn2c(CC)nc3ccccc3c2=O)cc1)C(=O)O` [Example 4, (−)-3-[4-[2-(2-Ethyl-4-oxo-3,4-dihydroquinazolin-3-yl)ethoxy]phenyl]-2ethoxypropanoic acid lysine salt] has a Kel [1] of 0.31 h⁻¹, an AUC(0-inf) [1, 2] of 38400 ng·h/mL and an AUC(0-t) [1, 3] of 40600 ng·h/mL. It also gave a Cmax [1, 4] of 38700 ng/mL, a Tmax [1, 5] of 0.5 h and a half-life [1, 2] of 1.97 h.
With `CCO[C@@H](Cc1ccc(OCCn2c(CC)nc3ccccc3c2=O)cc1)C(=O)O` [Example 7, (−)-3-[4-[2-(2-Ethyl-4-oxo-3,4-dihydroquinazolin-3-yl)ethoxy]phenyl]-2-ethoxypropanoic acid N-methyl glucamine salt] the “AUC (0-∞)” value [1] was 51430 ng·h/mL, the “AUC(0-t)” value [1] was 51650 ng·h/mL and the Cmax [1] was 40250 ng/mL. The Kel [1] was 0.38 h⁻¹, the Tmax [1] was 0.90 h and the t½ [1] was 1.91 h.
With `CCO[C@@H](Cc1ccc(OCCn2c(CC)nc3ccccc3c2=O)cc1)C(=O)O` [Example 10, (−)-3-[4-[2-(2-Ethyl-4-oxo-3,4-dihydroquinazolin-3-yl)ethoxy]phenyl]-2-ethoxypropanoic acid magnesium salt] the “AUC (0-∞)” value [1] was 74070 ng·h/mL, the “AUC(0-t)” value [1] was 75890 ng·h/mL and the Cmax [1] was 54210 ng/mL. For the same molecule, the Kel [1] was 0.34 h⁻¹, the Tmax [1] was 0.50 h and the t½ [1] was 2.16 h.
`CCCc1nn(C)c2c(=O)n(CCOc3ccc(C[C@H](OCC)C(=O)[O-])cc3)c(CC)nc12.[Na+]` [Example 35, (−)-3-[4-[2-(1-Methyl-5-ethyl-7-oxo-3-propyl-6,7-dihydro-1H-pyrazolo[4,3-d]pyrimidin-6-yl)ethoxy]phenyl]-2-ethoxypropionic acid sodium salt] gave a melting point of 112 to 114 °C.
In the case of `CCCc1nn(C)c2c(=O)n(CCOc3ccc(C[C@H](OCC)C(=O)O)cc3)c(CC)nc12` [Example 40, (−)-3-[4-[2-(1-Methyl-5-ethyl-7-oxo-3-propyl-6,7-dihydro-1H-pyrazolo[4,3-d]pyrimidin-6-yl)ethoxy]phenyl]-2-ethoxypropionic acid tromethamine salt], the Kel [1] is reported as 0.60 h⁻¹, the Tmax [1] is reported as 0.75 h and the AUC(0-inf) [1, 2] is reported as 78600 ng·h/mL. For the same molecule, the AUC(0-t) [1, 3] was 77800 ng·h/mL, the Cmax [1, 4] was 34200 ng/mL and the half-life [1, 2] was 1.2 h.
In the case of `CCO[C@@H](Cc1ccc(OCCn2c(CC)nc(-c3ccccc3)cc2=O)cc1)C(=O)[O-].[K+]` [Example 46, (−)2-Ethoxy-3-[4-[2-[2-ethyl-6-oxo-4-phenyl-1,6-dihydropyrimidin-1-yl]ethoxy]phenyl]propanoic acid potassium salt], the Kel [1] is reported as 0.32 h⁻¹, the AUC(0-inf) [1, 2] is reported as 62900 ng·h/mL and the AUC(0-t) [1, 3] is reported as 61200 ng·h/mL. For the same molecule, the Cmax [1, 4] was 17700 ng/mL, the Tmax [1, 5] was 1.33 h and the half-life [1, 2] was 2.19 h.
With `CCO[C@@H](Cc1ccc(OCCn2c(CC)nc(-c3ccccc3)cc2=O)cc1)C(=O)[O-].[Na+]` [Example 47, (−)2-Ethoxy-3-[4-[2-[2-ethyl-6-oxo-4-phenyl-1,6-dihydropyrimidin-1-yl]ethoxy]phenyl]propanoic acid sodium salt] the Kel [1] was 0.34 h⁻¹, the AUC(0-inf) [1, 2] was 83300 ng·h/mL and the AUC(0-t) [1, 3] was 82200 ng·h/mL. It also gave a Cmax [1, 4] of 39500 ng/mL, a Tmax [1, 5] of 0.5 h and a half-life [1, 2] of 2.07 h.
Molecule `CCO[C@@H](Cc1ccc(OCCn2c(CC)nc(-c3ccccc3)cc2=O)cc1)C(=O)O` [Example 48, (−)2-Ethoxy-3-[4-[2-[2-ethyl-6-oxo-4-phenyl-1,6-dihydropyrimidin-1-yl]ethoxy]phenyl]propanoic acid L-arginine salt] has a Kel [1] of 0.29 h⁻¹, an AUC(0-inf) [1, 2] of 92600 ng·h/mL and an AUC(0-t) [1, 3] of 90100 ng·h/mL. The Cmax [1, 4] was 50400 ng/mL, the Tmax [1, 5] was 0.5 h and the half-life [1, 2] was 2.18 h.
